The data set in a line: in vitro. The note with it: human, hela cells, % viability.

As a reminder, the viability is a read-out of living cells in per cent, often relative to untreated cells. For the molecule `CCc1cnc(CN(C)C2CCN(CC(=O)NCc3ccco3)C2)o1` (centres unmarked) [CBK306137], the viability at 28.5 h, 10 µM turned out to be 94.8%.

Consider `CCc1nc2ccc(C(=O)N(C)Cc3ccco3)cn2c1N(C)Cc1cccs1` [CBK145552], for which the viability at 28.5 h, 10 µM was 98.5%.

`NC(=O)c1ccc(-c2cncc(N3CCN(CCO)CC3)n2)cc1` [CBK065392]: the viability at 28.5 h, 10 µM is 96.5%.

On to `CCc1nnc(NS(=O)(=O)c2ccc(NC(=O)c3ccc([N+](=O)[O-])cc3)cc2)s1` [CBK045483], for which the viability at 28.5 h, 10 µM was 95.4%.

Take `O=C(O)CC1SC(Nc2ccc(F)cc2F)=NC1=O` (centres unmarked) [CBK200115]: the viability at 28.5 h, 10 µM was 99.3%.

In the case of `O=C1COc2ccccc2CCCCC2(CCCN(C(=O)CCN3CCCC3=O)C2)CN1` (centres unmarked) [CBK291998], the viability at 28.5 h, 10 µM worked out at 103%.

On to `S=C(NCc1ccc(Cl)c(Cl)c1)Nc1ccncc1` [CBK016649], for which the viability at 28.5 h, 10 µM worked out at 84.9%.

With `c1ccc(CN2CC[C@H](c3nnc(-c4cccnc4)o3)C2)cc1` [CBK289397], the viability at 28.5 h, 10 µM amounted to 85.6%.

For `O=C(O)CN1C(=O)/C(=C/C2=Cc3ccccc3OC2)SC1=S` [CBK264787], the viability at 28.5 h, 10 µM amounted to 103%.

On to `CCOC(=O)c1ccc(N2CC(C(=O)O)CC2=O)cc1` (centres unmarked) [CBK268106], for which the viability at 28.5 h, 10 µM was 115%.

With `CCn1c2cc(C)sc2c2cnn(Cc3cccnc3)c(=O)c21` [CBK284169], the viability at 28.5 h, 10 µM amounted to 86.6%.

Regarding `COc1ccccc1N1CCN(C(=O)c2c(Cl)cnn2C)CC1` [CBK288247], the viability at 28.5 h, 10 µM stood at 94.3%.

In the case of `Cc1nn(-c2ccc(F)cc2)c(C)c1C(=O)NCc1ccnc(N2CCCC2)c1` [CBK296700], the viability at 28.5 h, 10 µM was determined as 93.3%.

Consider `CSCc1nc2ccccc2n1CC(=O)N(CCC#N)Cc1ccco1` [CBK305440], for which the viability at 28.5 h, 10 µM was 97.7%.

Regarding `COc1ccc(Cl)cc1NC(=S)NNC(=O)c1cccnc1` [CBK267161], the viability at 28.5 h, 10 µM came out at 92.7%.

For `CCCCNc1cc(N2CCN(c3cnn(C)c3)C(=O)C2)nc(N)n1` [CBK306260], the viability at 28.5 h, 10 µM was 87.8%.

For `Cc1cc(C)n(-c2nc3ccccc3nc2N2CCN(S(=O)(=O)c3ccccc3)CC2)n1` [CBK269399], the viability at 28.5 h, 10 µM was found to be 79.9%.

In the case of `Nc1ncc(-c2ccc(-c3ccccc3F)cc2)c2cccnc12` [CBK067597], the viability at 28.5 h, 10 µM stood at 76.5%.

Turning to `CC1(C)CC(=O)C2=C(C1)OC(=O)CC2c1ccc(Cl)cc1Cl` (centres unmarked) [CBK007777], the viability at 28.5 h, 10 µM worked out at 93.8%.

Regarding `O=C(NCc1cccnc1)C(=O)Nc1ccc(F)cc1F` [CBK269481], the viability at 28.5 h, 10 µM was found to be 101%.

Regarding `COc1cccc(CN2CCc3cc(OC)c(OC)cc3C2)c1` [CBK126441], the viability at 28.5 h, 10 µM came to 102%.

`Cc1nnc(SCC(=O)NCc2c(C)c(Cl)cc(C(C)C)c2O)s1` [CBK269662]: the viability at 28.5 h, 10 µM was found to be 86.1%.

As to `CCN(CC)C(=O)c1[nH]c2ccccc2c1NS(=O)(=O)c1c(C)noc1C` [CBK050117], the viability at 28.5 h, 10 µM came to 89.1%.

Regarding `CC1CCN(C(=O)Cn2ncn3c(cc4ccsc43)c2=O)CC1` [CBK284190], the viability at 28.5 h, 10 µM came out at 101%.

As to `Cc1nonc1NC(=O)CSc1nc2ccccc2[nH]1` [CBK269273], the viability at 28.5 h, 10 µM was found to be 101%.

On to `COc1ccc(C(=O)C2=C(O)C(=O)N(CCN3CCOCC3)C2c2ccc(O)c(OC)c2)c(C)c1` (centres unmarked) [CBK264858], for which the viability at 28.5 h, 10 µM worked out at 88%.

For the molecule `CCC(CC)CNc1ncnc2ccc(S(C)(=O)=O)cc12` [CBK306495], the viability at 28.5 h, 10 µM is 90.9%.

Take `Cc1ccc(C(=O)NCc2cccnc2)c(N2CCOCC2)n1` [CBK076400]: the viability at 28.5 h, 10 µM was determined as 112%.

With `Cc1c(S(=O)(=O)NCc2ccc(C(F)(F)F)c(F)c2)cnn1-c1ccccc1` [CBK062115], the viability at 28.5 h, 10 µM worked out at 108%.

`CC(=O)NCc1cccc(-c2cc(CO)cnc2-c2ccc(Cl)cc2)c1` [CBK161445]: the viability at 28.5 h, 10 µM amounted to 94.6%.

Consider `C/C(=N\NC(=O)CSCc1ccccc1Br)c1cccc([N+](=O)[O-])c1` [CBK026344], for which the viability at 28.5 h, 10 µM was 95.9%.

On to `O=S(=O)(c1cccc2nsnc12)N1CCCN(Cc2ccsc2)CC1` [CBK038570], for which the viability at 28.5 h, 10 µM was found to be 105%.

As to `CC(C)(C)OC(=O)N1CCN(CCCOC2(C)SC(NC3CC4CCC3C4)=NC2=O)CC1` (centres unmarked) [CBK115612], the viability at 28.5 h, 10 µM stood at 95.9%.

As to `COc1ccc(-c2cnc3[nH]c(=O)n(CCCN4CCOCC4)c3n2)c(OC)c1OC` [CBK064249], the viability at 28.5 h, 10 µM is 109%.

`CCC(C)(C)c1ccc(S(=O)(=O)N2CCN(Cc3c(C)nn(C)c3C)CC2)cc1` [CBK062835]: the viability at 28.5 h, 10 µM is 97.2%.

As to `CC1CCN(CC(=O)NC2CCN(C(C)c3ccccc3)CC2)CC1` (centres unmarked) [CBK284017], the viability at 28.5 h, 10 µM is 101%.

Consider `CCCCCn1c(=O)c(Cc2ccccc2)c(O)c2ccccc21` [CBK291233], for which the viability at 28.5 h, 10 µM stood at 93.2%.

As to `CC(=O)c1cccc(-c2nc(CC3CCN(C)CC3)nn2CCO)c1` [CBK306645], the viability at 28.5 h, 10 µM was determined as 98.3%.

Regarding `COc1cc(-c2cncc(N[C@@H](C)c3ccccc3)n2)cc(OC)c1OC` [CBK065551], the viability at 28.5 h, 10 µM is 104%.

For `CCn1cc(CN(CC(C)C)C(=O)c2ccccc2C#N)cn1` [CBK306729], the viability at 28.5 h, 10 µM was 102%.

Take `CC(C)Oc1cccc2cccc(C(O)CN(C)C)c12` (centres unmarked) [CBK009892]: the viability at 28.5 h, 10 µM came out at 98.5%.

Consider `Cc1cccnc1C(c1ccc(F)cc1)N(C)C(=O)C1CCN(C(=O)OCc2ccccc2)CC1` (centres unmarked) [CBK060095], for which the viability at 28.5 h, 10 µM is 116%.

For `O=C(COC(=O)c1cc(O)nc2ccccc12)c1ccc(Br)cc1` [CBK262125], the viability at 28.5 h, 10 µM is 103%.

As for `NCCCN(Cc1ccco1)C1CCCC1` [CBK268856], the viability at 28.5 h, 10 µM is 109%.

`CCN(CC)C(=O)Cn1nc(C)n2c(cc3sccc32)c1=O` [CBK284044]: the viability at 28.5 h, 10 µM was 88.7%.

As to `Cc1ncccc1COC(=O)N1CCC(C(F)(F)F)CC1` [CBK200154], the viability at 28.5 h, 10 µM is 102%.

Consider `Cc1ccc(S(=O)(=O)NCCn2cnc([N+](=O)[O-])n2)cc1` [CBK266270], for which the viability at 28.5 h, 10 µM was found to be 96.3%.

Turning to `O=C(CO)N1CC2(CCN(CC3COc4ccccc4O3)CC2)c2ccccc21` (centres unmarked) [CBK143951], the viability at 28.5 h, 10 µM turned out to be 105%.

In the case of `CC(C)(C)C1=CC2=NC3(CCOCC3)[C@@H]3C[C@@H](O)[C@@H](O)[C@@H]3N2O1` [CBK303244], the viability at 28.5 h, 10 µM worked out at 90.1%.

For `CCc1c(C)nc2c(C(=O)N3CCCC3COC)cnn2c1C` (centres unmarked) [CBK162146], the viability at 28.5 h, 10 µM came out at 92.1%.

Take `O=C(CSc1nnc(-c2ccco2)n1Cc1ccco1)c1ccc(-c2ccccc2)cc1` [CBK267555]: the viability at 28.5 h, 10 µM came out at 91.1%.

Turning to `Cn1c([C@H]2CCN(C(=O)c3cnccn3)C2)nc2ccccc21` [CBK289416], the viability at 28.5 h, 10 µM worked out at 110%.

As to `Clc1ccc(Cl)c(-c2ccc(CNCc3cccnc3)o2)c1` [CBK269720C], the viability at 28.5 h, 10 µM is 103%.

With `CCCC/C(=N/N=C(\CCCC)c1ccncc1)c1ccncc1` [CBK016521], the viability at 28.5 h, 10 µM stood at 120%.

Take `CC(C)(C)OC(=O)Nc1ccc(Nc2cc(-c3ccc(F)c(F)c3)ncn2)cc1` [CBK091143]: the viability at 28.5 h, 10 µM was found to be 90.1%.

On to `Cc1ccc(Cc2cnc(NC(=O)C3CCCO3)s2)cc1Cl` (centres unmarked) [CBK305013], for which the viability at 28.5 h, 10 µM was 96%.

In the case of `S=C(Nc1ccc(Nc2ccccc2)cc1)N1CCN(Cc2ccc3c(c2)OCO3)CC1` [CBK266141], the viability at 28.5 h, 10 µM amounted to 96.7%.

Take `O=C(O)c1ccc(Cl)c(S(=O)(=O)NCc2ccco2)c1` [CBK304575]: the viability at 28.5 h, 10 µM came out at 105%.

Turning to `O=C(COc1ccccc1[N+](=O)[O-])Nc1cc(-c2nc3cc(Cl)ccc3o2)ccc1Cl` [CBK268639], the viability at 28.5 h, 10 µM is 116%.

For the molecule `Cc1csc(NC(=O)CN2CCC(c3ccccc3F)CC2)n1` [CBK283569], the viability at 28.5 h, 10 µM is 109%.

Regarding `OC1(c2ccc(Cl)cc2)CCNCC1` [CBK023044], the viability at 28.5 h, 10 µM is 92%.

For `O=C(c1cccnc1)C1CCN(C(=O)C2CCCC2)CC1` [CBK283508], the viability at 28.5 h, 10 µM came out at 96.2%.

As to `Cc1cc(C(F)(F)F)nn1CC(=O)Nc1sc2c(c1C#N)CCC(C)C2` (centres unmarked) [CBK304619], the viability at 28.5 h, 10 µM was determined as 92.1%.

Turning to `CCOc1cccc(OCC(=O)N2CCC(c3cc(C(=O)NC)c4ccccc4n3)C2)c1` (centres unmarked) [CBK285896], the viability at 28.5 h, 10 µM is 81.5%.

Regarding `O=C(O)CCc1ccc(-c2ccc(F)cc2)n1NC(=O)c1ccco1` [CBK268853], the viability at 28.5 h, 10 µM turned out to be 90.7%.

With `CN(C)CC(C)(C)CN1C2CCC1CC(O)(c1ccccc1F)C2` (centres unmarked) [CBK282648], the viability at 28.5 h, 10 µM was determined as 94.4%.

With `CCOC(=O)c1cnn2c(O)cc(CN(Cc3cccs3)C3CC3)nc12` [CBK305625], the viability at 28.5 h, 10 µM amounted to 96.9%.

On to `Cc1cc2c(N3CCCC3)nc(N3CCCC3)nc2n1C` [CBK016633C], for which the viability at 28.5 h, 10 µM is 101%.

Turning to `COc1cc(OC)c2nc(C(F)(F)F)cc(Cl)c2c1` [CBK006518], the viability at 28.5 h, 10 µM came to 83.1%.

As for `COc1cc(/C=N/NC(=O)C(=O)Nc2ccc(C)c(C)c2)ccc1O` [CBK262225], the viability at 28.5 h, 10 µM came to 86%.

For the molecule `CCOC(=O)c1cccnc1-c1ccc(S(C)(=O)=O)cc1` [CBK149242], the viability at 28.5 h, 10 µM was 105%.

As to `COc1cnc(/C=C\c2ccccc2)c(NC(=O)c2ccco2)n1` [CBK145361], the viability at 28.5 h, 10 µM was 90.4%.

Consider `Cc1[nH]c(=O)[nH]c(=O)c1S(=O)(=O)Nc1ccc(S(N)(=O)=O)cc1` [CBK262123], for which the viability at 28.5 h, 10 µM was determined as 91.7%.

`O=C(C1CCC1)N1CCCC1c1nnc(-c2ccsc2)o1` (centres unmarked) [CBK283365]: the viability at 28.5 h, 10 µM was 101%.

In the case of `Cc1ccc(C2NS(=O)(=O)NC2=N)cc1` (centres unmarked) [CBK263848], the viability at 28.5 h, 10 µM worked out at 95.2%.

`c1ccc(CN2CCN(c3nccnc3OCCN3CCOCC3)CC2)cc1` [CBK082885T]: the viability at 28.5 h, 10 µM came out at 104%.

Take `CCc1nc2ccccc2n1CC(=O)N(C)C(C)c1cccnc1` (centres unmarked) [CBK304017]: the viability at 28.5 h, 10 µM stood at 110%.

In the case of `COc1ccc(S(=O)(=O)N2CCC(C(=O)O)(c3ccccc3)CC2)cc1` [CBK267572], the viability at 28.5 h, 10 µM was found to be 94.3%.

For the molecule `c1ccc2sc([C@H]3CCNC3)nc2c1` [CBK289389], the viability at 28.5 h, 10 µM is 91.2%.

As to `CC(C)(C)OC(=O)N1CCC(COc2ncc(-c3ccc(C(=O)N4CCC[C@@H]4CO)nc3)cn2)CC1` [CBK170022], the viability at 28.5 h, 10 µM worked out at 90.9%.
